From patent US9770479B2, “Extract of Rehmannia glutinasa Libosch for reducing blood sugar, reducing blood fat, treating leukemia, and preparation method and uses thereof” (priority 2007, dated 2017) come the findings set out here.

Assay [1] relates to acute nonlymphocytic leukemia (ANLL) cell. Briefly: Apoptosis induction / DNA fragments percentage in ANLL bone marrow cells. It is filed as cell-based, human. The note with it: for DNA fragments percentage: n 15. An excerpt: (§1) In order to investigate catalpol and the Rehmannia glutinasa Libosch. extract according to the present invention for their effect of inducing apoptosis in leukemia cells as well as the mechanism, bone marrows and HL260 cells from 15 patients with acute nonlymphocytic leukemia (ANLL) were mixed with catalpol and co-cultivated for 24 hr, and then different test methods including cytomorphologic means, DNA gel electrophoresis and DNA fragments percentage analysis were adopted to observe the effect on apoptosis in leukemia cells.

Another assay has as its system HL260 cell. Briefly: Apoptosis induction / DNA fragments percentage in HL260 cells. In kind it is cell-based. The note with it: for DNA fragments percentage: n 4.
Text: as §1

Assay [2] deals with Spontaneous Hyperglycemic KK Mice. Briefly: Blood glucose in spontaneous hyperglycemic KK mice (type II diabetes model). It is filed as in vivo. The note with it: 500 mg/kg intragastric once a day. As to the method:
Forty male and female KK diabetes mice weighing about 40 g were separately housed at a temperature of […] and fed on a fat-heavy diet and arbitrary amount of water. After being fast food but not fast water for 2 hr, 10 μl blood collected from the tail veins was tested for blood glucose values, and mice having blood glucose value ≧8.0 mmol/L were selected.
The mice obtained from the above step were randomly divided into groups labeled as model control, low-dose A, mid-dose A, high-dose A, DD, B, C, D, E and F. Subsequently, intragastric administration was performed once a day for 15 consecutive days. Blood glucose values before administration, and at one hour after administration for 5 days, 10 day and 15 days (fast food but not fast water for two hours after last administration) were tested respectively, and the results were as follows: […]

Assay [3] has as its system Alloxan-Induced Hyperglycemic Mice. Nature of the assay: Blood glucose in alloxan-induced hyperglycemic mice. It is filed as in vivo, Kunming mice. Conditions: 500 mg/Kg intragastric daily. The method, then:
Male Kunming mice weighing 25-29 g
Raising condition: The mice were housed in a laboratory animal room of 2nd grade that was ventilated regularly with the temperature controlled at 20-24° C.
Male mice were selected and firstly fasted for 6 hr, and alloxan was injected into tail vein at a dose of 60 mg/kg. After 72 hr, the mice having blood glucose values […] were selected as experimental animals and grouped.
The alloxan-induced hyperglycemic mice were randomly divided into groups labeled as normal control, model control, low-dose A, mid-dose A, high-dose A, DD, B, C, D, E and F. Subsequently, intragastric administration was performed for 15 consecutive days. 16 hours after the last administration, the mice were fasted for 8 hr. Blood glucose values before administration, and at 1 hour after administration for 5 days, 10 day and 15 days were tested respectively on blood collected from the inguinal vein, and the results were as follows: […]

For another assay, the system named is bcl22. Briefly: Immunohistochemical protein expression of gene bcl22 in bone marrow cells. In kind it is cell-based, human. The note with it: bone marrow cells before and after treatment; immunohistochemical method.
Text: as §1

The mark [4] stands for this setting: table section 'after treating with the extract for 24 hrs', 10 μg · ml^−1.
Setting [5] is: table section 'at 24 hrs after treatment with catalpol', 10 μg · ml^−1.
The mark [6] stands for this setting: table section 'after treating with the extract for 24 hrs', 10 − 7 mol · L^−1.
The mark [7] stands for this setting: table section 'at 24 hrs after treatment with catalpol', 10 − 7 mol · L^−1.
[8] abbreviates: co-cultivated 24 hr, cytomorphology, DNA gel electrophoresis, DNA fragments percentage.

Marks after values point to notes of the source that are not given here.

With `Nc1ccn([C@@H]2O[C@H](CO)[C@@H](O)[C@@H]2O)c(=O)n1` [Ara2c], the DNA fragments percentage in assay [1] (setting [4]) is reported as 39.7 ± 7.9%; in assay [1] (setting [5]) it was 40.1 ± 8.2%; in the assay with HL260 cell (setting [4]) it was 27.0 ± 1.1%; in the assay with HL260 cell (setting [5]), 28.2 ± 1.4%.

Regarding `COC(=O)C[C@](O)(CCCC(C)(C)O)C(=O)O[C@@H]1C(OC)=C[C@]23CCCN2CCc2cc4c(cc2[C@H]13)OCO4` [HHT], the DNA fragments percentage in assay [1] (setting [6]) is listed as 36.2 ± 5.0%; in assay [1] (setting [7]) it was 38.1 ± 5.1%; in the assay with HL260 cell (setting [6]) it was 25.3 ± 1.0%; in the assay with HL260 cell (setting [7]), 26.1 ± 1.2%.

On to `CN(C)C(=N)NC(=N)N` [DD, dimethyl diguanidine], for which the “Blood Glucose Value” is reported as 13.36 ± 2.85 mmol/L in assay [2] (0 day (before administration)); 11.16 ± 3.19 mmol/L in assay [2] (5 days); 10.03 ± 2.11 mmol/L in assay [2] (10 days); 8.84 ± 4.51 mmol/L in assay [2] (15 days); 19.7 mmol/L in assay [3] (0 day (before administration)); 12.5** mmol/L in assay [3] (5 days). For the same compound, the results for the “Blood Glucose Value” in assay [3] (10 days) and in assay [3] (15 days) were 13.2** mmol/L and 14.0** mmol/L, respectively.

As to `OC[C@H]1O[C@@H](O[C@@H]2OC=C[C@H]3[C@H](O)[C@@H]4O[C@]4(CO)[C@@H]23)[C@H](O)[C@@H](O)[C@@H]1O` [catalpol], the induction of apoptosis entry (in assay [1] (setting [8]); with HL260 cell (setting [8])) was “able to induce apoptosis” each time. For the same compound, the “protein expression of gene bcl22” value in the assay on bcl22 was “obviously lowered”.
